Measured values published in patent US10633419B2, “Immunomodulators” (BRISTOL-MYERS SQUIBB COMPANY, priority 2014, dated 2020).
Starred links: 1 amine or outer side, 2 acyl side, 3 side chain; linkers in the order of their positions; H or OH if unused. Positions of bridges follow the written chain, without caps; N, C: chain ends. Non-standard residues stand in square brackets, D forms with d. Residues, ends and D or L forms follow the SMILES beside them. ξ: configuration not given here. *: point of attachment. X12 = O=C(O)CCCCCCCCCCCCCCCCCCC(=O)N[C@@H](CCC(=O)NCCCOCCOCCOCCCN*)C(=O)O; X6 = O=C(O)CCCCCCCCCCCCCCCCC(=O)N[C@@H](CCC(=O)NCCCOCCOCCOCCCN*)C(=O)O; X4 = O=C(O)CCCCCCCCCCCCCCCCC(=O)N[C@@H](CC(=O)NCCCOCCOCCOCCCN*)C(=O)O; X18 = O=C(O)CCCCCCCCCCCCCCC(=O)N[C@@H](CC(=O)NCCCOCCOCCOCCCN*)C(=O)O; Trp(1-CH2COOH) = N[C@@H](Cc1cn(CC(=O)O)c2ccccc12)C(=O)O; X19 = O=C(C1C[C@H](O)CN1[*:1])[*:2]; ξPro(4R-OH) = O=C(O)C1C[C@@H](O)CN1; dHyp = O=C(O)[C@H]1C[C@H](O)CN1; NMeNle = CCCC[C@H](NC)C(=O)O; dDab = NCC[C@@H](N)C(=O)O; NMeA = CN[C@@H](C)C(=O)O; Dab = NCC[C@H](N)C(=O)O; Dap = NC[C@H](N)C(=O)O

Target: T1, PD-L1 (Homo sapiens, UniProt Q9NZQ7)
T1 construct: hPDL1(19-239)-TVMV-His; made in house; host or cells: HEK293T
Test: PD-1/PD-L1 Homogenous Time-Resolved Fluorescence (HTRF) binding assay (PD-1-Ig/PD-L1-His)
Conditions: inhibition of PD-1-Ig binding to PD-L1-TVMV-His; value given as number; read-out: HTRF IC50
Procedure, shortened: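 HTRF competition in dPBS with 0.1% BSA and 0.05% Tween-20: 20 nM PD-1-Ig added after 15 min compound pre-incubation with 10 nM PD-L1-His, then another 15 min. Signal (665/620 nm) after 30 min with APC anti-His (20 nM) and Eu anti-Ig (1 nM).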

T1 sequence (Q9NZQ7 with tags, fused parts or gaps): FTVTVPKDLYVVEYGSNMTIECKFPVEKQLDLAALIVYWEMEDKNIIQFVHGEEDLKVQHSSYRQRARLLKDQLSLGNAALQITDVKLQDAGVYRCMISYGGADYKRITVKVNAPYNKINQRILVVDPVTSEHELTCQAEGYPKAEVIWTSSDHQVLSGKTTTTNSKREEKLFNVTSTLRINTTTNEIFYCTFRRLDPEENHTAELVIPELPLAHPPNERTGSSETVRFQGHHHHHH

Compound | IC50
CCCC[C@H]1C(=O)N(C)[C@@H](CCCC)C(=O)N[C@@H](CC(C)C)C(=O)N[C@H](C(=O)NCC(=O)N[C@@H](CC(=O)O)C(=O)N[C@@H](CC(=O)NCCCOCCOCCOCCCNC(=O)C[C@H](NC(=O)CCCCCCCCCCCCCCC(=O)O)C(=O)O)C(=O)O)CSCC(=O)N[C@@H](Cc2ccc(O)cc2)C(=O)N(C)[C@@H](C)C(=O)N[C@@H](CC(N)=O)C(=O)N2CCC[C@@H]2C(=O)N[C@@H](CN)C(=O)N[C@@H](CC(C)C)C(=O)N2C[C@@H](O)C[C@@H]2C(=O)N[C@@H](Cc2c[nH]c3ccccc23)C(=O)N[C@@H](CCN)C(=O)N[C@@H](Cc2cn(CC(=O)O)c3ccccc23)C(=O)N1C [Example 11240] ({CH2CO}-Y[NMeA]N[dP][Dap]L[dHyp]W[Dab][Trp(1-CH2COOH)][NMeNle][NMeNle]LCGDD(X18)-OH; thioether N-14) | 10 nM

Same assay, conditions: inhibition of PD-1-Ig binding to PD-L1-TVMV-His; value given as range class; read-out: HTRF IC50

Compound | IC50
CCCC[C@H]1C(=O)N(C)[C@@H](CCCC)C(=O)N[C@@H](CC(C)C)C(=O)N[C@H](C(=O)N[C@@H](CC(=O)O)C(=O)N[C@@H](CCC(=O)NCCCOCCOCCOCCCNC(=O)CC[C@H](NC(=O)CCCCCCCCCCCCCCCCC(=O)O)C(=O)O)C(=O)O)CSCC(=O)N[C@@H](Cc2ccc(O)cc2)C(=O)N(C)[C@@H](C)C(=O)N[C@@H](CC(N)=O)C(=O)N2CCC[C@@H]2C(=O)N[C@@H](CN)C(=O)N[C@@H](CC(C)C)C(=O)N2C[C@@H](O)C[C@@H]2C(=O)N[C@@H](Cc2c[nH]c3ccccc23)C(=O)N[C@@H](CCN)C(=O)N[C@@H](Cc2cn(CC(=O)O)c3ccccc23)C(=O)N1C [Example 11228] ({CH2CO}-Y[NMeA]N[dP][Dap]L[dHyp]W[Dab][Trp(1-CH2COOH)][NMeNle][NMeNle]LCDE(X6)-OH; thioether N-14) | 10 to 99 nM
CCCC[C@H]1C(=O)N(C)[C@@H](CCCC)C(=O)N[C@@H](CC(C)C)C(=O)N[C@H](C(=O)NCC(=O)N[C@@H](CC(=O)O)C(=O)N[C@@H](CC(=O)NCCCOCCOCCOCCCNC(=O)C[C@H](NC(=O)CCCCCCCCCCCCCCCCC(=O)O)C(=O)O)C(=O)O)CSCC(=O)N[C@@H](Cc2ccc(O)cc2)C(=O)N(C)[C@@H](C)C(=O)N[C@@H](CC(N)=O)C(=O)N2CCC[C@@H]2C(=O)N[C@@H](CN)C(=O)N[C@@H](CC(C)C)C(=O)N2C[C@@H](O)C[C@@H]2C(=O)N[C@@H](Cc2c[nH]c3ccccc23)C(=O)N[C@@H](CCN)C(=O)N[C@@H](Cc2cn(CC(=O)O)c3ccccc23)C(=O)N1C [Example 11232] ({CH2CO}-Y[NMeA]N[dP][Dap]L[dHyp]W[Dab][Trp(1-CH2COOH)][NMeNle][NMeNle]LCGDD(X4)-OH; thioether N-14) | 10 to 99 nM
CCCC[C@H]1C(=O)N(C)[C@@H](CCCC)C(=O)N[C@@H](CC(C)C)C(=O)N[C@H](C(=O)NCC(=O)N[C@@H](CCC(=O)NCCCOCCOCCOCCCNC(=O)C[C@H](NC(=O)CCCCCCCCCCCCCCCCC(=O)O)C(=O)O)C(=O)O)CSCC(=O)N[C@@H](Cc2ccc(O)cc2)C(=O)N(C)[C@@H](C)C(=O)N[C@@H](CC(N)=O)C(=O)N2CCC[C@@H]2C(=O)N[C@@H](CN)C(=O)N[C@@H](CC(C)C)C(=O)N2C[C@@H](O)C[C@@H]2C(=O)N[C@@H](Cc2c[nH]c3ccccc23)C(=O)N[C@@H](CCN)C(=O)N[C@@H](Cc2cn(CC(=O)O)c3ccccc23)C(=O)N1C [Example 11234] ({CH2CO}-Y[NMeA]N[dP][Dap]L[dHyp]W[Dab][Trp(1-CH2COOH)][NMeNle][NMeNle]LCGE(X4)-OH; thioether N-14) | 0.3 to 9.9 nM
CCCC[C@H]1C(=O)N(C)[C@@H](CCCC)C(=O)N[C@@H](CC(C)C)C(=O)N[C@@H](C(=O)NCC(=O)N[C@@H](CC(=O)O)C(=O)NCCCOCCOCCOCCCNC(=O)C[C@H](NC(=O)CCCCCCCCCCCCCCCCC(=O)O)C(=O)O)CSCC(=O)N[C@@H](Cc2ccc(O)cc2)C(=O)N(C)[C@@H](C)C(=O)N[C@@H](CC(N)=O)C(=O)N2CCC[C@@H]2C(=O)N[C@@H](CN)C(=O)N[C@@H](CC(C)C)C(=O)N2C[C@@H](O)C[C@@H]2C(=O)N[C@@H](Cc2c[nH]c3ccccc23)C(=O)N[C@@H](CCN)C(=O)N[C@@H](Cc2cn(CC(=O)O)c3ccccc23)C(=O)N1C [Example 11237] ({CH2CO}-Y[NMeA]N[dP][Dap]L[dHyp]W[Dab][Trp(1-CH2COOH)][NMeNle][NMeNle]L[dC]GD-X4; thioether N-14) | 10 to 99 nM
CCCC[C@H]1C(=O)N(C)[C@@H](CCCC)C(=O)N[C@@H](CC(C)C)C(=O)N[C@@H](C(=O)NCC(=O)N[C@@H](CC(=O)O)C(=O)NCCCOCCOCCOCCCNC(=O)C[C@H](NC(=O)CCCCCCCCCCCCCCC(=O)O)C(=O)O)CSCC(=O)N[C@@H](Cc2ccc(O)cc2)C(=O)N(C)[C@@H](C)C(=O)N[C@@H](CC(N)=O)C(=O)N2CCC[C@@H]2C(=O)N[C@@H](CN)C(=O)N[C@@H](CC(C)C)C(=O)N2C[C@@H](O)C[C@@H]2C(=O)N[C@@H](Cc2c[nH]c3ccccc23)C(=O)N[C@@H](CCN)C(=O)N[C@@H](Cc2cn(CC(=O)O)c3ccccc23)C(=O)N1C [Example 11238] ({CH2CO}-Y[NMeA]N[dP][Dap]L[dHyp]W[Dab][Trp(1-CH2COOH)][NMeNle][NMeNle]L[dC]GD-X18; thioether N-14) | 0.3 to 9.9 nM
CCCC[C@H]1C(=O)N(C)[C@@H](CCCC)C(=O)N[C@@H](CC(C)C)C(=O)N[C@@H](C(=O)NCC(=O)N[C@@H](CC(=O)O)C(=O)N[C@@H](CCC(=O)NCCCOCCOCCOCCCNC(=O)C[C@H](NC(=O)CCCCCCCCCCCCCCC(=O)O)C(=O)O)C(=O)O)CSCC(=O)N[C@@H](Cc2ccc(O)cc2)C(=O)N(C)[C@@H](C)C(=O)N[C@@H](CC(N)=O)C(=O)N2CCC[C@@H]2C(=O)N[C@@H](CN)C(=O)N[C@@H](CC(C)C)C(=O)N2C[C@@H](O)C[C@@H]2C(=O)N[C@@H](Cc2c[nH]c3ccccc23)C(=O)N[C@H](CCN)C(=O)N[C@@H](Cc2cn(CC(=O)O)c3ccccc23)C(=O)N1C [Example 11241] ({CH2CO}-Y[NMeA]N[dP][Dap]L[dHyp]W[dDab][Trp(1-CH2COOH)][NMeNle][NMeNle]L[dC]GDE(X18)-OH; thioether N-14) | 10 to 99 nM
CCCC[C@H]1C(=O)N(C)[C@@H](CCCC)C(=O)N[C@@H](CC(C)C)C(=O)N[C@H](C(=O)NCCCOCCOCCOCCCNC(=O)C[C@H](NC(=O)CCCCCCCCCCCCCCC(=O)O)C(=O)O)CSCC(=O)N[C@@H](Cc2ccc(O)cc2)C(=O)N(C)[C@@H](C)C(=O)N[C@@H](CC(N)=O)C(=O)N2CCC[C@@H]2C(=O)N[C@@H](CN)C(=O)N[C@@H](CC(C)C)C(=O)N2C[C@@H](O)C[C@@H]2C(=O)N[C@@H](Cc2c[nH]c3ccccc23)C(=O)N[C@@H](CCN)C(=O)N[C@@H](Cc2cn(CC(=O)O)c3ccccc23)C(=O)N1C [Example 11242] ({CH2CO}-Y[NMeA]N[dP][Dap]L[dHyp]W[Dab][Trp(1-CH2COOH)][NMeNle][NMeNle]LC-X18; thioether N-14) | 10 to 99 nM
CCCC[C@H]1C(=O)N(C)[C@@H](CCCC)C(=O)N[C@@H](CC(C)C)C(=O)N[C@H](C(=O)NCC(=O)N[C@@H](CCC(=O)NCCCOCCOCCOCCCNC(=O)C[C@H](NC(=O)CCCCCCCCCCCCCCC(=O)O)C(=O)O)C(=O)O)CSCC(=O)N[C@@H](Cc2ccc(O)cc2)C(=O)N(C)[C@@H](C)C(=O)N[C@@H](CC(N)=O)C(=O)N2CCC[C@@H]2C(=O)N[C@@H](CN)C(=O)N[C@@H](CC(C)C)C(=O)N2C[C@@H](O)CC2C(=O)N[C@@H](Cc2c[nH]c3ccccc23)C(=O)N[C@@H](CCN)C(=O)N[C@@H](Cc2cn(CC(=O)O)c3ccccc23)C(=O)N1C (stereo partly drawn) [Example 11243] ({CH2CO}-Y[NMeA]N[dP][Dap]L[X19]W[Dab][Trp(1-CH2COOH)][NMeNle][NMeNle]LCGE(X18)-OH; thioether N-14) | 100 to 1600 nM
CCCC[C@H]1C(=O)N(C)[C@@H](CCCC)C(=O)N[C@@H](CC(C)C)C(=O)N[C@@H](C(=O)N[C@@H](CC(=O)O)C(=O)N[C@@H](CC(=O)NCCCOCCOCCOCCCNC(=O)C[C@H](NC(=O)CCCCCCCCCCCCCCC(=O)O)C(=O)O)C(=O)O)CSCC(=O)N[C@@H](Cc2ccc(O)cc2)C(=O)N(C)[C@@H](C)C(=O)N[C@@H](CC(N)=O)C(=O)N2CCC[C@@H]2C(=O)N[C@@H](CN)C(=O)N[C@@H](CC(C)C)C(=O)N2C[C@@H](O)CC2C(=O)N[C@@H](Cc2c[nH]c3ccccc23)C(=O)N[C@@H](CCN)C(=O)N[C@@H](Cc2cn(CC(=O)O)c3ccccc23)C(=O)N1C (stereo partly drawn) [Example 11244] ({CH2CO}-Y[NMeA]N[dP][Dap]L[X19]W[Dab][Trp(1-CH2COOH)][NMeNle][NMeNle]L[dC]DD(X18)-OH; thioether N-14) | 100 to 1600 nM
CCCC[C@H]1C(=O)N(C)[C@@H](CCCC)C(=O)N[C@@H](CC(C)C)C(=O)N[C@@H](C(=O)N[C@@H](CC(=O)O)C(=O)N[C@@H](CCC(=O)NCCCOCCOCCOCCCNC(=O)C[C@H](NC(=O)CCCCCCCCCCCCCCC(=O)O)C(=O)O)C(=O)O)CSCC(=O)N[C@@H](Cc2ccc(O)cc2)C(=O)N(C)[C@@H](C)C(=O)N[C@@H](CC(N)=O)C(=O)N2CCC[C@@H]2C(=O)N[C@@H](CN)C(=O)N[C@@H](CC(C)C)C(=O)N2C[C@@H](O)CC2C(=O)N[C@@H](Cc2c[nH]c3ccccc23)C(=O)N[C@@H](CCN)C(=O)N[C@@H](Cc2cn(CC(=O)O)c3ccccc23)C(=O)N1C (stereo partly drawn) [Example 11245] ({CH2CO}-Y[NMeA]N[dP][Dap]L[X19]W[Dab][Trp(1-CH2COOH)][NMeNle][NMeNle]L[dC]DE(X18)-OH; thioether N-14) | 10 to 99 nM
CCCC[C@H]1C(=O)N(C)[C@@H](CCCC)C(=O)N[C@@H](CC(C)C)C(=O)N[C@H](C(=O)NCC(=O)N[C@@H](CC(=O)O)C(=O)N[C@@H](CCC(=O)NCCCOCCOCCOCCCNC(=O)CC[C@H](NC(=O)CCCCCCCCCCCCCCCCCCC(=O)O)C(=O)O)C(=O)O)CSCC(=O)N[C@@H](Cc2ccc(O)cc2)C(=O)N(C)[C@@H](C)C(=O)N[C@@H](CC(N)=O)C(=O)N2CCC[C@H]2C(=O)N[C@@H](CN)C(=O)N[C@@H](CC(C)C)C(=O)N2C[C@H](O)CC2C(=O)N[C@@H](Cc2c[nH]c3ccccc23)C(=O)N[C@@H](CCN)C(=O)N[C@@H](Cc2cn(CC(=O)O)c3ccccc23)C(=O)N1C (stereo partly drawn) [Example 11249] ({CH2CO}-Y[NMeA]NP[Dap]L[ξPro(4R-OH)]W[Dab][Trp(1-CH2COOH)][NMeNle][NMeNle]LCGDE(X12)-OH; thioether N-14) | 0.3 to 9.9 nM
